Measurements published in patent US11969412B2, “Methods and compounds for the treatment or prevention of hypercytokinemia and severe influenza” (Poolbeg Pharma (UK) Limited, priority 2017, dated 2024).
Where two headings read alike, the source gives them in different places.

Assays:
influenza virus = conditions: cited from earlier work; for survival rate at Day 20 of infection: controls 14%
[1] = system: immune cells (PBMCs plus granulocytes stimulated with A549 viral soup); assay: cells; format: cell-based, human
[2] = system: endothelial cells (HUVECs); assay: cells; format: cell-based, human
HBEC cells = assay: Inflammatory mediator production in HBEC cells after HBEC viral soup (MSD analysis); format: cell-based, human; conditions: HBECs treated prior to HBEC viral soup
immune cells (PBMCs) = format: cell-based, human
p38MAPK [3] = assay: Western blotting of p38MAPK and HSP27 phosphorylation in A549 cells after A549 viral soup; format: cell-based, human; conditions: western blot
Experimental: In vitro data were generated from A549 cells to test the effect of A549 viral soup application on p38 activation as measured by western blotting of the phosphorylation status of p38MAPK itself and downstream signalling target, HSP27. For western blotting confluent cells were washed in PBS and lysed in RIPA with protease inhibitor (Sigma-P8340), phosphatase inhibitor cocktails 2 and 3 (Sigma P5726 and P0044) and phosphatase inhibitors Na3VO4 and NaF on ice. Protein concentrations were determined using the Pierce BCA Protein Assay Kit and equal concentrations of each sample created in 4× Laemmli sample buffer (BIO-RAD 161-0747) with 2-mercaptoethanol. Samples were run on a 12% gel and then transferred on to nitrocellulose. Membranes were blocked using 5% milk powder, then hybridised with p38 MAPK rabbit antibody (Cell Signalling Technologies, cat. no. 9212S) and phosphorylated p38 MAPK rabbit antibody (Cell Signalling Technologies, cat. no. 9211S), or HSP27 antibody (Cell signalling Technologies, cat. no. 2402) and phospho-HSP27 antibody (Cell signalling Technologies, cat. no. 9709). Secondary antibodies were anti-rabbit HRP (Cell signalling Technologies catalogue no. CS7074P2) and anti-mouse HRP (Cell signalling, catalogue no. 7076S), respectively. Membranes were stripped for re-probing using Restore™ PLUS Western Blot Stripping Buffer (Life technologies #46430). […]

p38MAPK [4] = assay: Western blotting of HSP27 phosphorylation in HUVEC cells after HBEC viral soup; format: cell-based, human; conditions: pre-incubation, western blot
Experimental: For western blotting confluent cells were washed in PBS and lysed in RIPA with protease inhibitor (Sigma-P8340), phosphatase inhibitor cocktails 2 and 3 (Sigma P5726 and P0044) and phosphatase inhibitors Na3VO4 and NaF on ice. […] The membranes were treated with Amersham ECL Prime Western Blotting Detection Reagent (GE/Amersham #RPN2232) and imaged using ChemiDoc™ Touch Imaging System (BIORAD). Analysis was performed using the Image Lab software.
In vitro data were generated from HUVEC cells to test the effect of HBEC viral soup application on p38 activation as measured by western blotting of the phosphorylation status of the p38MAPK downstream signalling target, HSP27.

p38MAPK [5] = assay: Western blotting of HSP27 phosphorylation in immune cells (PBMCs) after A549 viral soup; format: cell-based, human; conditions: pre-incubation, western blot
[6] = Homo sapiens, A549, read-out: IC50 IL8
[7] = Homo sapiens, A549, read-out: IC50 TNFa
[8] = Homo sapiens, A549, read-out: IC50 IL1B
[9] = Homo sapiens, A549, read-out: IC50 IL6
[10] = Homo sapiens, HUVEC, read-out: IC50 IL10

Question: What does the source list for CC[C@H]1OC(=O)[C@H](C)[C@@H](O[C@H]2C[C@@](C)(OC)[C@@H](O)[C@H](C)O2)[C@H](C)[C@@H](O[C@@H]2O[C@H](C)C[C@H](N(C)C)[C@H]2O)[C@](C)(O)C[C@@H](C)C(=O)[C@H](C)[C@@H](O)[C@]1(C)O [EM]?
Answer: survival rate at Day 20 of infection (influenza virus; 1.0 mg/kg/d): 42%; survival rate of mice infected with influenza virus (influenza virus; 3.3 mg/kg/d intraperitoneally, Days 1-6 after infection): significantly improved; survival rate at Day 20 of infection (influenza virus; 3.3 mg/kg/d): 57%

Question: Which results are given for O=C(Nc1c(Cl)cncc1Cl)c1ccc(OC(F)F)c(OCC2CC2)c1 [Roflumilast]?
Answer: iMax IL8 [1]: 31%; iMax TNFa [1]: 74%; IC50 [1, 6]: 0.09 nM; IC50 [1, 7]: 10.8 nM

Question: Which “iMax IL1B” value [1] does the source give for C[C@H]1C[C@@H]2[C@H]([C@@H](O)C[C@@]3(C)[C@H]2CC[C@]3(O)C(=O)CO)[C@@]2(C)C=CC(=O)C=C12 [Methyl Prednisolone] here?
Answer: Its value is 77%.

Question: What about the “iMax IL6” value [1] of the same molecule?
Answer: The value was 57%.

Question: What about the “iMax IL8” value [1] of the same molecule?
Answer: Its value is 90%.

Question: And the “iMax TNFa” value [1]?
Answer: Its value is 79%.

Question: And the IC50 [1, 8]?
Answer: Its IC50 is 8.4 nM.

Question: And the IC50 [1, 9]?
Answer: Its IC50 is 36.6 nM.

Question: What about the IC50 [1, 6] of the same molecule?
Answer: Its IC50 is 8.4 nM.

Question: And the IC50 [1, 7]?
Answer: The IC50 was 20.2 nM.

Question: With COc1cc(F)c(F)c(Nc2ccc(I)cc2F)c1NS(=O)(=O)C1(C[C@H](O)CO)CC1 [Refametinib] as the molecule, how does the “dose-dependent inhibition of IP10 production” value [2] read?
Answer: The value was “Neither Refametinib nor Selumetinib showed dose-dependent inhibition”.

Question: What about the “levels of IP10 at higher drug concentrations” value [2] of the same molecule?
Answer: The value was “appeared to increase”.

Question: Which “dose-dependent inhibition of IP10 production” value [2] does the source give for Selumetinib here?
Answer: Its value is “Neither Refametinib nor Selumetinib showed dose-dependent inhibition”.

Question: What about the “levels of IP10 at higher drug concentrations” value [2] of the same molecule?
Answer: Its value is “appeared to increase”.

Question: What does the source list for Cn1cc2c(-c3ccc(F)cc3)c(-c3ccncc3)c(-c3ccc(F)cc3)nc2n1 [Formula III]?
Answer: release of IL-6 and IP-10 (HBEC cells): attenuated; production of TNFα and IL-8 (immune cells (PBMCs)): attenuate; production of IL-8 and IP-10 [2]: attenuate

Question: Which “iMax IL6” value [1] does the source give for CCc1ccc(CCOc2ccc(CC3SC(=O)NC3=O)cc2)nc1 (centres unmarked) [Pioglitazone] here?
Answer: Its value is 41%.

Question: What about the “iMax IL8” value [1] of the same molecule?
Answer: Its value is 37%.

Question: And the IC50 [1, 9]?
Answer: Its IC50 is 0.02 nM.

Question: What about the IC50 [1, 6] of the same molecule?
Answer: Its IC50 is 0.1 nM.

Question: With Nc1ccc2ncnc(NCCc3ccc(Oc4ccccc4)cc3)c2c1 [QNZ (EVP4593)] as the molecule, how does the “iMax IL8” value [1] read?
Answer: The value was 47%.

Question: And the “iMax TNFa” value [1]?
Answer: Its value is 37%.

Question: What about the IC50 ([1]; read-out: IC50 IL8) of the same molecule?
Answer: Its IC50 is 0.2 nM.

Question: What about the IC50 ([1]; read-out: IC50 TNFa) of the same molecule?
Answer: Its IC50 is 43.6 nM.

Question: And the “iMax IL8” value [2]?
Answer: The value was 60%.

Question: And the “iMax IL10” value [2]?
Answer: The value was 72%.

Question: And the “iMax MCP1” value [2]?
Answer: Its value is 44%.

Question: And the IC50 ([2]; read-out: IC50 IL8)?
Answer: Its IC50 is 6.5 nM.

Question: What about the IC50 ([2]; read-out: IC50 IL10) of the same molecule?
Answer: Its IC50 is 3.3 nM.

Question: What about the IC50 ([2]; read-out: IC50 MCP1) of the same molecule?
Answer: Its IC50 is 3.84 nM.

Question: With CC[C@H](C)C(=O)O[C@H]1C[C@H](O)C=C2C=C[C@H](C)[C@H](CC[C@@H](O)C[C@@H](O)CC(=O)O)[C@H]21 [Pravastatin] as the molecule, how does the “iMax IL10” value [2] read?
Answer: Its value is 35%.

Question: And the IC50 [2, 10]?
Answer: The IC50 was 78 nM.

Question: What does the source list for CNC(=O)c1ccc(C)c(-n2c(C)cc(OCc3ccc(F)cc3F)c(Br)c2=O)c1 [PH797804]?
Answer: iMax IL1B [1]: 79%; iMax IL8 [1]: 87%; iMax TNFa [1]: 91%; IC50 [1, 8]: 9.7 nM; IC50 [1, 6]: 2.3 nM; IC50 [1, 7]: 3.9 nM; A549 viral soup induced release of TNFα, IL-1-β, IL-6 and CXCL8 (immune cells (PBMCs)): significantly attenuate; iMax IL8 [2]: 86%; iMax IL10 [2]: 88%; iMax MCP1 [2]: 36%; IC50 ([2]; Homo sapiens, HUVEC, read-out: IC50 IL8): 28.9 nM; IC50 [2, 10]: 7.5 nM; IC50 ([2]; Homo sapiens, HUVEC, read-out: IC50 MCP1): 13.1 nM; induction of both p38MAPK and HSP27 phosphorylation (p38MAPK [3]): dose dependently inhibit

Question: Which “attenuating the inflammatory response in immune cells, compared with Formula III” value (immune cells (PBMCs)) does the source give for OCCCn1cc2c(-c3ccc(F)cc3)c(-c3ccncc3)c(-c3ccc(F)cc3)nc2n1 [Formula II] here?
Answer: The value was “consistently better effects than the compound of Formula III”.

Question: And the “production of MIP-1a and IL-8 (TNFa plus IL-6 as stimulus) and TNFa and IL-8 (A549 virus soup as stimulus)” value (immune cells (PBMCs))?
Answer: The value was “attenuate”.

Question: What about the “attenuating the inflammatory response in endothelial cells, compared with Formula III” value [2] of the same molecule?
Answer: The value was “consistently better effects than the compound of Formula III”.

Question: What about the “production of IL-8 and IP-10” value [2] of the same molecule?
Answer: The value was “attenuate”.

Question: Which results are given for CC[C@H]1OC(=O)[C@H](C)[C@@H](O[C@H]2C[C@@](C)(OC)[C@@H](O)[C@H](C)O2)[C@H](C)[C@@H](O[C@@H]2O[C@H](C)C[C@H](N(C)C)[C@H]2O)[C@](C)(O)C[C@@H](C)CN(C)[C@H](C)[C@@H](O)[C@]1(C)O [Azithromycin]?
Answer: iMax IL1B [1]: 50%; iMax IL6 [1]: 45%; iMax IL8 [1]: 46%; iMax TNFa [1]: 63%; IC50 [1, 8]: 0.5 nM; IC50 [1, 9]: 119 nM; IC50 [1, 6]: 0.8 nM; IC50 [1, 7]: 86.9 nM

Question: Which “A549 viral soup induced release of TNFα, IL-1-β, IL-6 and CXCL8” value (immune cells (PBMCs)) does the source give for Cc1cc(F)ccc1-c1nc(NC(CO)CO)nc2c1ccc(=O)n2-c1c(F)cccc1F [Dilmapimod] here?
Answer: Its value is “significantly attenuate”.

Question: What about the “induction of HSP27 phosphorylation” value (p38MAPK [4]) of the same molecule?
Answer: The value was “dose dependently inhibit”.

Question: What about the “induction of both p38MAPK and HSP27 phosphorylation” value (p38MAPK [3]) of the same molecule?
Answer: The value was “dose dependently inhibit”.

Question: And the “induction of HSP27 phosphorylation” value (p38MAPK [5])?
Answer: The value was “dose dependently inhibit”.
